Test results: patent publication US9795551B2, “Tetrapeptides and a method of use as an antioxidant” (L'OREAL, priority 2014, dated 2017)

Key:
[1] = HORAC hydroxyl radical absorbance capacity (USTM 190), in tubo
Method: (§1) In the screening standard testing for oxygen radical absorbance capacity (ORAC) and hydroxyl radical absorbance capacity (HORAC) were conducted with the test polypeptides. Testing was conducted according to USTM 190 (HORAC) and USTM 192 (ORAC).
(§2) The peptides were tested in tubo for their antioxidant properties and tested against reference/known antioxidants. The evaluation of the antioxidant properties were conducted by determination of the ORAC (USTM 192) and HORAC (USTM 190) test methods. The results are listed in Table I for the peptides of the invention and for the conventionally known antioxidants vitamin C and Carnosine.

[2] = ORAC oxygen radical absorbance capacity (USTM 192), in tubo
Method: as §1, §2

Compound: WrYr-NH2 [RED18]
- HORAC/hydroxyl [1]: 2982 μmol GAE/g
- ORAC/peroxyl [2]: 4758 μmol GAE/g

Compound: wRwR-NH2 [RED31]
- HORAC/hydroxyl [1]: 1189 μmol GAE/g
- ORAC/peroxyl [2]: 4652 μmol GAE/g

Compound: NCCC(=O)N[C@@H](Cc1c[nH]cn1)C(=O)O [Carnosine, β-alanyl-histidine, reference compound]
- HORAC/hydroxyl [1]: 2099 μmol GAE/g
- ORAC/peroxyl [2]: 354 μmol GAE/g

Compound: wRyRw-NH2 [RED29]
- HORAC/hydroxyl [1]: No capacity
- ORAC/peroxyl [2]: 5512 μmol GAE/g

Compound: WRyR-NH2 [RED21]
- HORAC/hydroxyl [1]: 2472 μmol GAE/g
- ORAC/peroxyl [2]: 4816 μmol GAE/g

Compound: wRyR-NH2 [RED22]
- HORAC/hydroxyl [1]: 1686 μmol GAE/g
- ORAC/peroxyl [2]: 5383 μmol GAE/g

Compound: WrYR-NH2 [RED20]
- HORAC/hydroxyl [1]: 1666 μmol GAE/g
- ORAC/peroxyl [2]: 4448 μmol GAE/g

Compound: RyR-NH2 [RED32]
- HORAC/hydroxyl [1]: 230 μmol GAE/g
- ORAC/peroxyl [2]: 3385 μmol GAE/g

Compound: RwRyR-NH2 [RED26]
- HORAC/hydroxyl [1]: No capacity
- ORAC/peroxyl [2]: 4461 μmol GAE/g

Compound: Ac-wRyR-NH2 [RED27]
- HORAC/hydroxyl [1]: 735 μmol GAE/g
- ORAC/peroxyl [2]: 5342 μmol GAE/g

Compound: wRYR-NH2 [RED24]
- HORAC/hydroxyl [1]: 2225 μmol GAE/g
- ORAC/peroxyl [2]: 4077 μmol GAE/g

Compound: O=C1O[C@H]([C@@H](O)CO)C(O)=C1O [Vitamin C, reference compound]
- HORAC/hydroxyl [1]: 0 μmol GAE/g
- ORAC/peroxyl [2]: 4456 μmol GAE/g

Compound: WRYR [RED23]
- HORAC/hydroxyl [1]: 2089 μmol GAE/g
- ORAC/peroxyl [2]: 4091 μmol GAE/g

Compound: WKYK-NH2 [RED25]
- HORAC/hydroxyl [1]: 2476 μmol GAE/g
- ORAC/peroxyl [2]: 4168 μmol GAE/g

Compound: wRyRy-NH2 [RED28]
- HORAC/hydroxyl [1]: No capacity
- ORAC/peroxyl [2]: 5216 μmol GAE/g

Compound: WRYR-NH2 [RED6]
- HORAC/hydroxyl [1]: 1548 μmol GAE/g
- ORAC/peroxyl [2]: 4488 μmol GAE/g

Compound: WRYr-NH2 [RED19]
- HORAC/hydroxyl [1]: 1457 μmol GAE/g
- ORAC/peroxyl [2]: 4350 μmol GAE/g
